Measurements as given in US20050032688A1, “Use of angiotensin II fragments and analogs thereof in tissue repair” (University of Southern California, priority 1993, published 2005).
Entries after “also recorded” stand apart in the source; their conditions may differ. Read-outs that look alike come from different tables or passages of the source. Ends that are not written are not given here.

Columns and labels:
water intake = conditions: injected into the anterior diencephalons in the rat; cited from earlier work
[1] = tested on: porcine coronary artery rings; conditions: perhaps through nitric oxide; cited from earlier work
[2] = tested on: porcine aortic endothelial cells; conditions: cited from earlier work
[3] = tested on: motility, stereotypy and learning of conditioned avoidance responses; conditions: injected in the lateral cerebral ventricle, rats; cited from earlier work
wound tissue = conditions: application to wound tissue; cited from earlier work
[4] = tested on: neurons in the paraventricular nucleus; conditions: cited from earlier work
rat adrenal medulla = conditions: cited from earlier work
rat mesangial cells = conditions: through the AT1 receptor; cited from earlier work
[5] = tested on: porcine vascular smooth muscle cells; conditions: cited from earlier work
[6] = tested on: rat isolated nodose ganglion; conditions: cited from earlier work
[7] = tested on: baroreceptor-heart-reflex; conditions: in vivo; cited from earlier work
human astrocytes = conditions: cited from earlier work
[8] = tested on: rat glomerulus preparations; conditions: through the AT1 receptor; cited from earlier work
[9] = tested on: full thickness dermal wounds; experiment: Wound closure and granulation tissue in full thickness dermal wounds, carboxymethyl cellulose vehicle (Example 3); assay type: in vivo, Female Sprague Dawley rats; conditions: tested fragments of AII
Procedure: Female Sprague Dawley rats, 175-200 g, were obtained from Simonsen Laboratories, Gilroy, Calif. On the day of surgery, the rats received intramuscular ketamine/rompum anesthesia prior to preparation for surgery. The rats were shaved and scrubbed with betadine. Two 1.5×1.5 cm full thickness dermal wounds were created on the dorsal surface of the rat. Following excision of the skin, the size of the wound was outlined on a glass slide and the medicament was administered ini 100 μl 10% low viscosity carboxymethyl cellulose (Sigma). The test materials were administered in a randomized fashion; all materials were tested at 100 μg/wound. Controls were treated with vehicle only. After administration of the materials, the rats were bandaged and allowed to recover from anesthesia. On days 1-4 after surgery, the rats were treated with an additional 100 μg of peptide formulation. At days 2, 4, 7 and 9, the area of the skin wounds were measured under methoxyflurane anesthesia (commercially available as Metofane from Pittman-Moore, Mundelein, Ill.). The area of the wound was determined by: (1) tracing the wound shape onto graph paper (1×1 mm squares); (2) cutting out the shape; (3) weighing the paper and comparing the weight with a 1.5×1.5 cm paper cutout; and (4) counting the number of squares. In addition, on days 2, 4 and 7, the area of granulation tissue was similarly determined.

blood pressure [10] = conditions: in vivo; cited from earlier work
blood pressure [11] = conditions: intracerebroventricular infusion in the rat; concentrations 1000× higher than that of AII that increased blood pressure; cited from earlier work
blood pressure [12] = conditions: cited from earlier work
[13] = in contrast to AII; cited from earlier work

Asp-Arg-Val-Tyr (DRVY) [AII(1-4)]
effect on water intake (water intake): only a slight effect

Val-Tyr-Ile-His-Pro-Phe (VYIHPF) [AII(3-8)]
dilation of coronary artery rings [1]: not observed

AI: a decapeptide called angiotensin I which is converted to angiotensin II (DRVYIHPFHL; Angiotensin-1; UniProt P01019 25-34, looked up)
release of prostaglandin E2 and 12 [2]: stimulated

Arg-Val-Tyr-Ile-His (RVYIH; printed: Arg-Val-Tyr-Ile-His) [AII(2-6)]
motility, stereotypy and learning of conditioned avoidance responses (psychotropic activities) [3]: not active

Asp-Arg-Val-Tyr-Ile-His-Pro-Phe (DRVYIHPF) [AII]
rate of wound healing (wound tissue): significantly increases
excitation of neurons [4]: excited
evoked neuronal norepinephrine release (rat adrenal medulla): biphasic effect
spontaneous neuronal norepinephrine release (rat adrenal medulla): increasing
choline production (rat mesangial cells): stimulates
prostaglandin release [5]: increases
release of intracellular Ca2+ [5]: increases
depolarization of nodose ganglion [6]: causes depolarization
sensitivity of the baroreceptor-heart-reflex [7]: enhances
prostaglandin release (human astrocytes): increases
release of intracellular Ca2+ (human astrocytes): increases
dilation of coronary artery rings [1]: not observed
formation of cAMP in response to histamine, serotonin and parathyroid hormone [8]: inhibited
motility, stereotypy and learning of conditioned avoidance responses (psychotropic activities) [3]: increased
release of prostaglandin E2 and 12 [2]: did not have this effect

His-Pro-Phe (HPF) [AII(6-8)]
effectiveness in wound healing [9]: not to be effective

Val-Tyr-Ile-His-Pro (VYIHP) [AII(3-7)]
depressor effect (blood pressure [10]): no depressor effect
pressor effect (blood pressure [10]): less of a pressor effect than AII(1-7)

Ile-His-Pro-Phe (IHPF) [AII(5-8)]
effect on water intake (water intake): only a slight effect
effect on blood pressure (blood pressure [11]): minimal effect

Try-Ile-His-Pro-Phe (YIHPF) [AII(4-8)]
effect on water intake (water intake): only a slight effect
effectiveness in wound healing [9]: not to be effective; also recorded: ineffective
effect on blood pressure (blood pressure [11]): minimal effect

DRVYIH [AII(1-6)]
choline production (rat mesangial cells): very weak effects
motility, stereotypy and learning of conditioned avoidance responses (psychotropic activities) [3]: not active

Asp-Arg-Val-Tyr-Ile-His-Pro (DRVYIHP) [AII(1-7)]
excitation of neurons [4]: weaker
excitation of neurons ([4]; listed as Ang(1-7)): excited
effect on water intake (water intake): completely inactive
choline production (rat mesangial cells): very weak effects
prostaglandin release [5]: increases
depolarization of nodose ganglion [6]: does not
prostaglandin release (human astrocytes): increases
amount required relative to AII to get a comparable pressor response (blood pressure [10]): about 10000 ×
depressor effect (blood pressure [10]): long depressor effect
pressor effect (blood pressure [10]): weak pressor
dose at which pressor effects on blood pressure occur, relative to AII (blood pressure [12]; depending upon the model tested and route of administration): 10000-100000 times the dose of AII
depressor effect on blood pressure (blood pressure [12]; may be mediated through prostanoid synthesis): depressor effect
dilation of coronary artery rings [1]: dilates
formation of cAMP in response to histamine, serotonin and parathyroid hormone [8]: did not have this effect
release of prostaglandin E2 and 12 [2]: stimulated
aldosterone release [13]: does not cause
catecholamine release [13]: does not cause
dipsogenic effect [13]: not dipsogenic

Arg-Val-Tyr-Ile-His-Pro (RVYIHP) [AII(2-7)]
excitation of neurons [4]: inactive
